Data published in patent US4000297A, “N-p-chlorobenzoyl tryptophane, salts and compositions thereof” (priority 1971, dated 1976).
Where a name gives a salt, the structure may show the parent alone. Read-outs that look alike come from different tables or passages of the source.

What was measured:
[1] = Solubility; format: physicochemical; conditions: for solubility / Solubility in water: water; for Solubility in water: in words
[2] = system: transit through the stomach and intestine; assay: Anti-spastic activity, vegetable carbon (charcoal) test, rate of transit through the stomach and intestine; format: in vivo, mice; conditions: for ED50: Mus musculus, 2 h, read-out: Antispastic activity ED50; for Antispastic activity ED50: charcoal after two hours, orally (later Table 3), 120 min
Method: Particularly marked is the anti-spastic activity which the present compounds exercise on the entire digestive system. Measured in the mouse, using the vegetable carbon test (rate of transit through the stomach and intestine), this activity is in some cases comparatively greater than the anti-secretive activity (Table 3).
(*)The antispastic activity is measured in mice of an average weight of […]
± 3 g by administering a suspension of charcoal in gum arabic and
checking after two hours whether the charcoal has reached the initial
portion of the colon. In non-treated subjects the charcoal reaches this
transit of the charcoal. Evaluation of the results is effected as
ED50 in mg/kg body weight of the animal, i.e., the dose at which the […]

[3] = system: gastric secretion; assay: Comparison of antisecretive activity, rats with tied pylorus, oral aqueous suspension; format: in vivo; conditions: for ED50: Rattus norvegicus, po, read-out: Antisecretive activity (dose which reduces the gastric secretion by 50%); for Antisecretive activity (dose which reduces the gastric secretion by 50%): oral
Method: (*)The antisecretive activity is defined as the dose in mg/kg of body
weight of the animal, which reduces the gastric secretion by 50%. The
evaluation is effected by considering the decrease in quantity of secrete
gastric juice as compared with controls. Rats of an average weight of 200
± 20 grams are employed of which the lower part of the stomach at the
level of the pylorus is tied to collect the gastric juice during the
indicated periods. The preparations are administered orally in the form o

[4] = system: gastric lesions from Indomethacin; assay: Protective activity against gastric lesions due to Indomethacin; format: in vivo, rats; conditions: for Protective activity / Protective activity ED50: oral; for Protective activity ED50: Indomethacin 16 mg/kg orally, 240 min
Method: The activity is defined as the dose in mg/kg of body weight to the animal, which prevents in 50% of the treated subjects arising of lesions due to Indomenthacin.
The protective preparations are administered orally in aqueous suspension.

| SMILES | Solubility in ethanol [1] | Solubility in methanol [1] | Antispastic activity ED50 [2] [mg/kg] | Antisecretive activity (dose which reduces the gastric secretion by 50%) ([3]; 2.5 hrs, 150 min) [mg/kg] | Antisecretive activity (dose which reduces the gastric secretion by 50%) ([3]; 5 hrs, 300 min) [mg/kg] | Antisecretive activity (dose which reduces the gastric secretion by 50%) ([3]; 10 hrs, 600 min) [mg/kg] | Protective activity ED50 [4] [mg/kg/os] | Antisecretive activity (dose which reduces the gastric secretion by 50%) ([3]; 15 hrs, 900 min) [mg/kg] | further results |
| --- | --- | --- | --- | --- | --- | --- | --- | --- | --- |
| O=C(N[C@@H](Cc1c[nH]c2ccccc12)C(=O)[O-])OCc1ccc(Cl)cc1.[Na+] | Highly soluble | Highly soluble |  |  |  |  |  |  | Solubility in acetone [1]: Highly soluble; solubility [1]: ~50 mg/mL |
| O=C(N[C@@H](Cc1c[nH]c2ccccc12)C(=O)[O-])c1ccc(Cl)cc1.[Na+] | Highly soluble | Highly soluble |  |  |  |  |  |  | ED50 ([2]; ip): 82 mg/kg; ED50 ([2]; po): 192 mg/kg; ED50 ([3]; 2.5 h): 118 mg/kg; ED50 ([3]; 5 h): 141 mg/kg; ED50 ([3]; 10 h): 147 mg/kg; ED50 ([3]; 15 h): 410 mg/kg; ED50 ([4]; Rattus norvegicus, po, 4 h, read-out: Protective activity ED50): 210 mg/kg; Solubility in acetone [1]: Highly soluble; solubility [1]: ~50 mg/mL |
| [OH][Al]([OH])[OH] [Aluminium hydroxide, reference compound] |  |  |  |  |  |  |  |  | Protective activity ([4]; 136mg/kg): inactive |
| O=C(N[C@@H](Cc1c[nH]c2ccccc12)C(=O)O)OCc1ccc([N+](=O)[O-])cc1 [CR 438 - Calcium salt] |  |  | > 1000 | 810 | 780 | 972 | > 1500 |  |  |
| O=C(N[C@@H](Cc1c[nH]c2ccccc12)C(=O)O)OCc1ccc(Cl)cc1 [CR 449 calcium salt, N-p-chloro-carbobenzoxy-L-tryptophane calcium salt] | soluble | soluble |  |  |  |  |  |  | Antisecretive activity (dose which reduces the gastric secretion by 50%) ([3]; 2.5 hrs, calcium salt, 150 min): 142 mg/kg; Antisecretive activity (dose which reduces the gastric secretion by 50%) ([3]; 5 hrs, calcium salt, 300 min): 112 mg/kg; Antisecretive activity (dose which reduces the gastric secretion by 50%) ([3]; 10 hrs, calcium salt, 600 min): 110 mg/kg; Antisecretive activity (dose which reduces the gastric secretion by 50%) ([3]; 15 hrs, calcium salt, 900 min): 106 mg/kg; Protective activity ED50 ([4]; calcium salt): 121 mg/kg/os; Solubility in water [1]: Very slightly soluble |
| O=C(N[C@@H](Cc1c[nH]c2ccccc12)C(=O)O)OCc1ccc(Br)cc1 [CR 451 - Calcium salt] |  |  | 393 | 233 | 220 | 337 | 392 | 580 |  |
| O=C(N[C@@H](Cc1c[nH]c2ccccc12)C(=O)O)c1ccc(Cl)cc1 [CR 501 aluminium salt, N-p-chloro-benzoyl-L-tryptophane aluminium salt] |  |  | 270 | 195 | 152 | 150 | 174 | 163 | Solubility in ethanol ([1]; listed as Example 56): Soluble; Solubility in methanol ([1]; listed as Example 56): Soluble; Solubility in water ([1]; listed as Example 56): very slightly soluble |
| O=C(N[C@@H](Cc1c[nH]c2ccccc12)C(=O)O)c1ccc(Cl)cc1 [CR 501 magnesium salt, N-p-chloro-benzoyl-L-tryptophane magnesium salt] |  |  | 278 | 230 | 180 | 146 | 162 | 135 | Solubility in ethanol ([1]; listed as Example 55): soluble; Solubility in methanol ([1]; listed as Example 55): soluble; Solubility in water ([1]; listed as Example 55): Very slightly soluble |
| Cc1ccc(C(=O)N[C@@H](Cc2c[nH]c3ccccc23)C(=O)O)cc1 [CR 510 - Calcium salt] |  |  | 725 | 602 | 574 | 521 | 390 | 666 |  |
| O=C([O-])[O-].[Ca+2] [Calcium carbonate, reference compound] |  |  |  |  |  |  |  |  | Protective activity ([4]; 140mg/kg): inactive |
